According to patent US20110044936A1, “Composition for Attracting Bed Bugs” (priority 2009, published 2011):

How the values were obtained:
Format in all cases: in vivo
[1] = test system: bed bugs (Cimex lectularius); assay: Bed bug aggregation (attraction) assay, Petri dish arena with treated and control filter paper tents (Example 1)
Method: Attraction Assays: Assay arenas were made from 150×15 mm plastic Petri dishes (VWR#25384-326) containing a 125 mm piece off qualitative filter paper (VWR#28320-100) glued to the bottom using 3M Super 77® multipurpose spray adhesive. A 80 mm hole was cut into the lid and a 500 um mesh Nytex® screen (Bioquip, #7293B) was glued to cover the opening using quick epoxy. Fresh bottom dishes were used in each assay. For these experiments 2.4 cm filter paper folded to create a tent were treated with either a control treatment (10 microliters of silicone oil for aldehyde controls and 5 microliters of deionized water for acid controls) or 10 microliters of the experimental test treatment diluted in silicone oil (aldehydes) or 5 microliters of the experimental chemical diluted in deionized water (acids). Ten bed bugs per test were released into the assay arena for the aldehyde test treatments and controls, five bed bugs per test were released into the assay arena for the acid test treatments. Day cycling bed bugs (Cimex lectularius), 12 hour light: 12 hour dark (7 AM On: 7 PM Off) light cycle, were incubated and evaluated under normal room lighting conditions at room temperature. Readings were taken at 1 hour intervals from the release of bed bugs for 4 hours for aldehydes and one hour for acids, due to the quick volatility of the acids. The number of bed bugs under the control filter paper disk and the number of bed bugs under the test treatment filter paper disk were recorded. The test treatment was considered to be an attractant if the number of bed bugs under the experimental filter disk was greater than the number under the control filter disk. Table 1 below summarizes the experimental data, the experimental test treatments considered as attractants are in bold.

[2] = test system: bed bugs (Cimex lectularius); assay: Test arena gas assay, compounds dissolved in nonane (Example 5); conditions: for % Bed bugs in Experimental Zone: after two hour exposure, released from nonane solution at 150.0-184.8 nanograms/hour @ 100 mL/min air flow, test gas 21-22 °C, control gas compressed air; for Attraction of bed bugs to gaseous mixture: test arena, two hour exposure, versus control gas
Text: A test arena was constructed from a 60×40×22 cm (L:W:H) polystyrene container. A 60×40 cm piece of filter paper was glued on the bottom to provide a walking surface for the bed bugs. At one end of the test arena, a triangular piece of plastic (16 cm high×25 cm long) was glued to the middle of the side and bottom of the container to create test zones of equal area on either side of the partition. On each side of this partition a piece of Tygon® tubing was inserted through a hole 7 cm above the bottom of each test zone to deliver a control gas to one side of the partition (control zone) and the experimental gas to the other side of the partition (experimental zone). The tubing was positioned to deliver the gases downward into the test zones with each outlet 6 cm above the filter paper glued to the bottom of the container. At the other end of the test arena, a 4 W night light was placed 35 cm above the bottom of the arena and regulated to a 12 hour light:12 hour dark (7 AM On: 7 PM Off) light cycle. Also placed adjacent to the night light was a small fan (Boston, cat#EHSDF) to create a gentle removal of gases from the distal part of the arena. Air released by the experimental and control gases was contained within their partitions and were gently drawn away from the respective air inputs, mixed within the arena and removed by the fan. This created a laminar flow where the bed bugs had opportunity to select either the experimental or control gas. Fifty bed bugs (Cimex lectularius) were entrapped within an inverted 90 mm Petri dish at a position furthest from the control and experimental zones until bed bugs were quiescent. Removal of the Petri dish started the experiment and readings were taken every hour for two hours. Data collected were number of bed bugs in the experimental, control and free arena zones. In addition, gas temperature, relative humidity, air flow rate, and percent CO2 data were collected. The experimental gas was considered to be an attractant if more bed bugs were in the experimental zone than in the control zone.
Determination of Bed Bug Aggregation Effect Using Hexenal, Butyric Acid, trans-2-Hexen-1-al Diethylacetal, Trimethylsilyl Butyrate or Methyl Butyrate Dissolved in an Alkane Solvent Using the test arena and methods described in Example 4, test treatments containing about 300 ppm of a pro-aldehyde compound, trans-2-hexen-1-al diethylacetal, dissolved in nonane, about 300 ppm of Hexenal dissolved in nonane, about 200 ppm of butyric acid dissolved in nonane and about 200 ppm of a pro-organic acid compound, trimethylsilyl butyrate or methyl butyrate, dissolved in nonane were prepared. Separate 100 micro liter pipettes (Drummond Wiretrol 100 μL) were filled with the test solutions. One end of each micro liter pipette was sealed with parafilm leaving one end of each open. […] An air tight lid was placed onto the plastic container and the container was installed in-line after humidity and temperature conditioning of the gas and before the gas entered the arena. The micro liter pipettes were weighed before and after use to determine the amount of the test compounds released. The control gas used for these experiments consisted of house compressed air.

[3] = test system: bed bugs (Cimex lectularius); assay: Bed bug aggregation assay, mixtures of Hexenal and Octenal (Example 2); conditions: about 30 ppm in silicone oil; for Number of bed bugs under experimental (Exp) disk: 5 microliters, ten bed bugs, average of two tests
Method: Attraction Assays: […] For this experiment, mixtures of Hexenal and Octenal were diluted in silicone oil at the following ratios: 100:0; 75:25; 50:50; 25:75; and 0:100. […] Readings were taken hourly for four hours from the release of bed bugs in the assay arena. The number of bed bugs under the control disk and the number of bed bugs under the experimental disk were recorded. The test treatment was considered to be an attractant if the number of bed bugs under the experimental filter disk was greater than the number under the control disk. Table 2 below summarizes the experimental data, the experimental test treatments considered as attractants are in bold.

[4] = organic acid 10 ppm in deionized water, 5 microliters, one hour, five bed bugs, average of two tests
[5] = organic acid 50 ppm in deionized water, 5 microliters, one hour, five bed bugs, average of two tests
[6] = organic acid 100 ppm in deionized water, 5 microliters, one hour, five bed bugs, average of two tests
[7] = organic acid 1000 ppm in deionized water, 5 microliters, one hour, five bed bugs, average of two tests
[8] = 1 ppm in silicone oil, 10 microliters, 1 Hour, ten bed bugs, average of two tests
[9] = 1 ppm in silicone oil, 10 microliters, 2 Hour, ten bed bugs, average of two tests
[10] = 1 ppm in silicone oil, 10 microliters, 3 Hour, ten bed bugs, average of two tests
[11] = 1 ppm in silicone oil, 10 microliters, 4 Hour, ten bed bugs, average of two tests
[12] = 10 ppm in silicone oil, 10 microliters, 1 Hour, ten bed bugs, average of two tests
[13] = 10 ppm in silicone oil, 10 microliters, 2 Hour, ten bed bugs, average of two tests
[14] = 10 ppm in silicone oil, 10 microliters, 3 Hour, ten bed bugs, average of two tests
[15] = 10 ppm in silicone oil, 10 microliters, 4 Hour, ten bed bugs, average of two tests
[16] = 100 ppm in silicone oil, 10 microliters, 1 Hour, ten bed bugs, average of two tests
[17] = 100 ppm in silicone oil, 10 microliters, 2 Hour, ten bed bugs, average of two tests
[18] = 100 ppm in silicone oil, 10 microliters, 3 Hour, ten bed bugs, average of two tests
[19] = 100 ppm in silicone oil, 10 microliters, 4 Hour, ten bed bugs, average of two tests
[20] = 1000 ppm in silicone oil, 10 microliters, 1 Hour, ten bed bugs, average of two tests
[21] = 1000 ppm in silicone oil, 10 microliters, 2 Hour, ten bed bugs, average of two tests
[22] = 1000 ppm in silicone oil, 10 microliters, 3 Hour, ten bed bugs, average of two tests
[23] = 1000 ppm in silicone oil, 10 microliters, 4 Hour, ten bed bugs, average of two tests
[24] = 10000 ppm in silicone oil, 10 microliters, 1 Hour, ten bed bugs, one test
[25] = 10000 ppm in silicone oil, 10 microliters, 2 Hour, ten bed bugs, one test
[26] = 10000 ppm in silicone oil, 10 microliters, 3 Hour, ten bed bugs, one test
[27] = 10000 ppm in silicone oil, 10 microliters, 4 Hour, ten bed bugs, one test
[28] = at a high concentration of about 10,000 ppm

## CC(=O)O [Acetic acid, reference compound]
[1]; [4]
  Number of bed bugs under experimental (Exp) filter paper disk: 0
[1]; [5]
  Number of bed bugs under experimental (Exp) filter paper disk: 1
[1]; [6]
  Number of bed bugs under experimental (Exp) filter paper disk: 1
[1]; [7]
  Number of bed bugs under experimental (Exp) filter paper disk: 3
[1]; organic acid 10000 ppm in deionized water, 5 microliters, one hour, five bed bugs, average of two tests
  Number of bed bugs under experimental (Exp) filter paper disk: 3

## O=CO [Formic acid, reference compound]
[1]; [4]
  Number of bed bugs under experimental (Exp) filter paper disk: 0
[1]; [5]
  Number of bed bugs under experimental (Exp) filter paper disk: 1
[1]; [6]
  Number of bed bugs under experimental (Exp) filter paper disk: 1
[1]; [7]
  Number of bed bugs under experimental (Exp) filter paper disk: 3

## CCC/C=C/C=O [Hexenal, trans-2-hexen-1-al]
[1]; [8]
  Number of bed bugs under experimental (Exp) filter paper disk: 4
[1]; [9]
  Number of bed bugs under experimental (Exp) filter paper disk: 6
[1]; [10]
  Number of bed bugs under experimental (Exp) filter paper disk: 6.5
[1]; [11]
  Number of bed bugs under experimental (Exp) filter paper disk: 6
[1]; [12]
  Number of bed bugs under experimental (Exp) filter paper disk: 3
[1]; [13]
  Number of bed bugs under experimental (Exp) filter paper disk: 3.5
[1]; [14]
  Number of bed bugs under experimental (Exp) filter paper disk: 4
[1]; [15]
  Number of bed bugs under experimental (Exp) filter paper disk: 5.5
[1]; [16]
  Number of bed bugs under experimental (Exp) filter paper disk: 6.5
[1]; [17]
  Number of bed bugs under experimental (Exp) filter paper disk: 8
[1]; [18]
  Number of bed bugs under experimental (Exp) filter paper disk: 9
[1]; [19]
  Number of bed bugs under experimental (Exp) filter paper disk: 8.5
[1]; [20]
  Number of bed bugs under experimental (Exp) filter paper disk: 6
[1]; [21]
  Number of bed bugs under experimental (Exp) filter paper disk: 7
[1]; [22]
  Number of bed bugs under experimental (Exp) filter paper disk: 9
[1]; [23]
  Number of bed bugs under experimental (Exp) filter paper disk: 9
[1]; [24]
  Number of bed bugs under experimental (Exp) filter paper disk: 0
[1]; [25]
  Number of bed bugs under experimental (Exp) filter paper disk: 1
[1]; [26]
  Number of bed bugs under experimental (Exp) filter paper disk: 1
[1]; [27]
  Number of bed bugs under experimental (Exp) filter paper disk: 1
[1]; [28]
  Attractiveness to bed bugs: much less attractive
[2]
  % Bed bugs in Experimental Zone: 38.0%
  Attraction of bed bugs to gaseous mixture: attracted
[3]; 1 Hour
  Number of bed bugs under experimental (Exp) disk: 3
[3]; 2 Hour
  Number of bed bugs under experimental (Exp) disk: 3
[3]; 3 Hour
  Number of bed bugs under experimental (Exp) disk: 4.5
[3]; 4 Hours
  Number of bed bugs under experimental (Exp) disk: 5

## CCCCC/C=C/C=O [Octenal, trans-2-octen-1-al]
[1]; [8]
  Number of bed bugs under experimental (Exp) filter paper disk: 1
[1]; [9]
  Number of bed bugs under experimental (Exp) filter paper disk: 2
[1]; [10]
  Number of bed bugs under experimental (Exp) filter paper disk: 3.5
[1]; [11]
  Number of bed bugs under experimental (Exp) filter paper disk: 5
[1]; [12]
  Number of bed bugs under experimental (Exp) filter paper disk: 2
[1]; [13]
  Number of bed bugs under experimental (Exp) filter paper disk: 4
[1]; [14]
  Number of bed bugs under experimental (Exp) filter paper disk: 4.5
[1]; [15]
  Number of bed bugs under experimental (Exp) filter paper disk: 4
[1]; [16]
  Number of bed bugs under experimental (Exp) filter paper disk: 5
[1]; [17]
  Number of bed bugs under experimental (Exp) filter paper disk: 6.5
[1]; [18]
  Number of bed bugs under experimental (Exp) filter paper disk: 7
[1]; [19]
  Number of bed bugs under experimental (Exp) filter paper disk: 6.5
[1]; [20]
  Number of bed bugs under experimental (Exp) filter paper disk: 5
[1]; [21]
  Number of bed bugs under experimental (Exp) filter paper disk: 4.5
[1]; [22]
  Number of bed bugs under experimental (Exp) filter paper disk: 5
[1]; [23]
  Number of bed bugs under experimental (Exp) filter paper disk: 5
[1]; [24]
  Number of bed bugs under experimental (Exp) filter paper disk: 2
[1]; [25]
  Number of bed bugs under experimental (Exp) filter paper disk: 2
[1]; [26]
  Number of bed bugs under experimental (Exp) filter paper disk: 2
[1]; [27]
  Number of bed bugs under experimental (Exp) filter paper disk: 4
[1]; [28]
  Attractiveness to bed bugs: much less attractive
[1]; at concentrations below about 100 ppm
  Attractiveness to bed bugs: less attractive
[3]; 1 Hour
  Number of bed bugs under experimental (Exp) disk: 7.5
[3]; 2 Hour
  Number of bed bugs under experimental (Exp) disk: 7.5
[3]; 3 Hour
  Number of bed bugs under experimental (Exp) disk: 9
[3]; 4 Hours
  Number of bed bugs under experimental (Exp) disk: 8.5
[3]; compared among H:O ratios
  Attraction of bed bugs to experimental filter disks: most bed bugs were attracted

## CCCC(=O)O[Si](C)(C)C [Trimethylsilyl butyrate, trimethylsilyl butyrate]
[2]
  % Bed bugs in Experimental Zone: 9%
  Attraction of bed bugs to gaseous mixture: attracted

## CCCCC=O [Valeraldehyde, reference compound]
[1]; 10 milligrams delivered in 10 microliters methanol solution, one experimental disk versus 6 methanol control disks, 1 Hour, average of two tests
  Number of bed bugs under experimental (Exp) filter paper disk: 0.1
[1]; saturated aldehyde, 10 milligrams on disk, one hour
  Attractiveness to bed bugs: not attractive

## CCCC(=O)OC [methyl butyrate]
[2]
  % Bed bugs in Experimental Zone: 34.0%
  Attraction of bed bugs to gaseous mixture: attracted

## CCC/C=C/C(OCC)OCC [trans-2-hexen-1-al diethylacetal]
[2]
  % Bed bugs in Experimental Zone: 28.0%
  Attraction of bed bugs to gaseous mixture: attracted
